Structures are written as SMILES. Counter-ions that a name gives are not always drawn.

T1 sequence (Q02293 whole entry, one chain of several): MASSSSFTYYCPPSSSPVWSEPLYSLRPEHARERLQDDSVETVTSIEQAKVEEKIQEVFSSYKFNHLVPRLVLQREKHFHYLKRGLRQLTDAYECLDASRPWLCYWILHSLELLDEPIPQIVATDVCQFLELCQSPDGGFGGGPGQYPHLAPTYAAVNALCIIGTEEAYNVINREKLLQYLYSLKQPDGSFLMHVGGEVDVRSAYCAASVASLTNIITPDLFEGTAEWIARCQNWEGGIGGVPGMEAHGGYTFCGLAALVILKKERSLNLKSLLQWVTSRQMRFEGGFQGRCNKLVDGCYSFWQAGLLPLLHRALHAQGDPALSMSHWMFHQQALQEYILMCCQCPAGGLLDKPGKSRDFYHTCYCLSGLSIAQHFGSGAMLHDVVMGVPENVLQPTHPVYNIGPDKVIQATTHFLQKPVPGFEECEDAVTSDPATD

One assay concerns the target T1, Rat brain protein farnesyltransferase (Rattus norvegicus, UniProt Q02293+Q04631).
T1 construct: Rat brain protein farnesyltransferase activity is measured; from tissue; host or cells: rat brain
The experiment in a line: % inhibition of farnesylation, scintillation proximity assay with biotin-K Ras B fragment. It counts as biochemical. The note with it: Table 1; 1 × 10^-5 M. The source says:
The ability of the compounds of the invention to inhibit protein farnesyltransferase or protein geranylgeranyltransferase can be measured according to the method of Moores, et al., J. Biol. Chem. 266: 14603 (1991) or the method of Vogt, et al., J. Biol. Chem. 270:660-664 (1995). In addition, procedures for determination of the inhibition of farnesylation of the oncogene protein Ras are described by Goldstein, et al., J. Biol. Chem., 266:15575-15578 (1991) and by Singh in U.S. Pat. No. 5,245,061.
In addition, in vitro inhibition of protein farnesyltransferase may be measured by the following procedure. Rat brain protein farnesyltransferase activity is measured using an Amersham Life Science commercial scintillation proximity assay kit and substituting a biotin-K Ras B fragment (biotin-[…]CO2 H), 0.1 mM final concentration, for the biotin-lamin substrate provided by Amersham. The enzyme is purified according to Reiss, Y., et al., Cell, 62: 81-88 (1990), utilizing steps one through three.
The % inhibition of protein farnesyltransferase was determined for representative compounds of the invention.
Regarding `CCn1cc(NCc2ccc(C(=O)N[C@@H](CCSC)C(=O)O)c(-c3ccccc3)c2)c(=O)n1CC` [Example 364], the “% inhibition at 1 × 10^-5 M” value amounted to 69%.
As for `CSCC[C@H](NC(=O)c1ccc(CNCCN2CCOCC2)cc1-c1ccccc1)C(=O)O` [Example 365], the “% inhibition at 1 × 10^-5 M” value turned out to be 97%.
Still for that read-out and setting: for `CSCC[C@H](NC(=O)c1ccc(CNCCN2CCCCC2)cc1-c1ccccc1)C(=O)O` [Example 366] the value was 83%.
For the molecule `CSCC[C@H](NC(=O)c1ccc(CNCCc2cccs2)cc1-c1ccccc1)C(=O)O` [Example 369], the “% inhibition at 1 × 10^-5 M” value was 87%.
Still for that read-out and setting: for `CSCC[C@H](NC(=O)c1ccc(CNc2cc[nH]n2)cc1-c1ccccc1)C(=O)O` [Example 370] the value was 86%; for `CSCC[C@H](NC(=O)c1ccc(CNc2nnc(C)s2)cc1-c1ccccc1)C(=O)O` [Example 371], 66%.
The same measure, in the same setting: for `CSCC[C@H](NC(=O)c1ccc(CNc2cc(C)on2)cc1-c1ccccc1)C(=O)O` [Example 372] the value was 69%; for `CSCC[C@H](NC(=O)c1ccc(CNc2cc(C)ns2)cc1-c1ccccc1)C(=O)O` [Example 373], 76%.
On the same count and under the same terms, as for `CSCC[C@H](NC(=O)c1ccc(CNc2nccs2)cc1-c1ccccc1)C(=O)O` [Example 374], the figure is 61%; as for `CSCC[C@H](NC(=O)c1ccc(CNCCCN2CCOCC2)cc1-c1ccccc1)C(=O)O` [Example 377], 71%; as for `CSCC[C@H](NC(=O)c1ccc(CNc2cc(C(C)(C)C)[nH]n2)cc1-c1ccccc1)C(=O)O` [Example 381], 79%.

Still in this assay, the particulars now being: Table 2; 1 × 10^-6 M.
As for `CSCC[C@H](NC(=O)c1ccc(CN2C(=O)OC[C@@H]2CC2CCCCC2)cc1-c1ccccc1C)C(=O)O` [Example 349], the “% inhibition at 1 × 10^-6 M” value is 99%.
On to `CCSC[C@H](CC1CCCCC1)NCc1ccc(C(=O)N[C@@H](CCSC)C(=O)O)c(-c2ccccc2C)c1` [Example 403], for which the “% inhibition at 1 × 10^-6 M” value came out at 99%.
Turning to `CSCC[C@H](NC(=O)c1ccc(CN(Cc2ccccc2)c2ccccc2)cc1-c1ccccc1C)C(=O)O` [Example 406], the “% inhibition at 1 × 10^-6 M” value was 95%.
On to `CSCC[C@H](NC(=O)c1ccc(CCc2ccccc2-c2ccccc2)cc1-c1ccccc1C)C(=O)[O-].[Li+]` [Example 452], for which the “% inhibition at 1 × 10^-6 M” value is reported as 96%.
On the same count and under the same terms, as for `CSCC[C@H](NC(=O)c1ccc(C=Cc2ccccc2Oc2ccccc2)cc1-c1ccccc1C)C(=O)[O-].[Li+]` [Example 453], the figure is 90%.
Still for that read-out and setting: for `Cc1ccccc1-c1cc(CCc2ccccc2Oc2ccccc2)ccc1C(=O)N[C@@H](CC[S+](C)[O-])C(=O)O` (stereo partly shown) [Example 456] the value was 81%; for `CSCC[C@H](NC(=O)c1ccc(C=Cc2ccccc2Cc2ccccc2)cc1-c1ccccc1C)C(=O)[O-].[Li+]` [Example 457], 92%.
The same measure, in the same setting: as for `Cc1ccccc1-c1cc(CCc2cccc(Oc3ccccc3)c2)ccc1C(=O)N[C@@H](CC[S+](C)[O-])C(=O)O` (stereo partly shown) [Example 460], the figure is 88%.

Still in this assay, the particulars now being: Table 3; 1 × 10^-7 M.
Take `CSCC[C@H](NC(=O)c1ccc(CCc2ccccc2Oc2ccccc2)cc1-c1ccccc1C)C(=O)[O-].[Li+]` [Example 455]: the “% inhibition at 1 × 10^-7 M” value is given as 83%.
As to `CSCC[C@H](NC(=O)c1ccc(CCc2ccccc2Cc2ccccc2)cc1-c1ccccc1C)C(=O)O` [Example 458], the “% inhibition at 1 × 10^-7 M” value is given as 87%.
For the molecule `CSCC[C@H](NC(=O)c1ccc(CCc2cccc(Oc3ccccc3)c2)cc1-c1ccccc1C)C(=O)[O-].[Li+]` [Example 459], the “% inhibition at 1 × 10^-7 M” value stood at 92%.
Same read-out and setting: as for `CSCC[C@H](NC(=O)c1ccc(CCc2ccc(C3CCCCC3)cc2)cc1-c1ccccc1C)C(=O)[O-].[Li+]` [Example 461], the figure is 93%.

The same assay, now with this note: read-out: % inhibition at 1 × 10^-6 M; Table 2; 1 × 10^-6 M.
Regarding `CSCC[C@H](NC(=O)c1ccc(COCCC23CC4CC(CC(C4)C2)C3)cc1-c1ccccc1C)C(=O)O` [Example 404, 4-[2-(1-adamantane)ethoxy]methyl-2(2-methylphenyl)benzoylmethionine lithium salt.], the inhibition at 1 µM was determined as 98%.
On the same count and under the same terms, for `CSCC[C@H](NC(=O)c1ccc(COCCCC2CCCCC2)cc1-c1ccccc1C)C(=O)O` [Example 405, 4-(3-cyclohexylpropoxy)methyl-2-(2-methylphenyl)benzoylmethionine lithium salt.] the value was 98%.
As to `CSCC[C@H](NC(=O)c1ccc(COCc2ccc(CN(C)C)o2)cc1-c1ccccc1C)C(=O)O` [Example 435, N-[4-(5-N,N-dimethylaminomethylfuran-2-ylmethoxymethyl)-2-(2-methylphenyl)benzoyl]methionine], the inhibition at 1 µM was 96%.

Still in this assay, the particulars now being: read-out: % inhibition at 1 × 10^-7 M.
As for `CSCC[C@H](NC(=O)c1ccc(COCc2ccc(Br)o2)cc1-c1ccccc1C)C(=O)O` [Example 434, N-[4-(5-Bromofuran-2-ylmethoxymethyl)-2-(2-methylphenyl)benzoyl]methionine lithium salt], the inhibition at 0.1 µM was 93%.
The same measure, in the same setting: as for `CSCC[C@H](NC(=O)c1ccc(COCc2ccc(-c3cccc(F)c3)o2)cc1-c1ccccc1C)C(=O)O` [Example 436, N-[4-(5-(3-fluorophenyl)furan-2-ylmethoxymethyl)-2-(2-methylphenyl)benzoyl]methionine lithium salt], the figure is 89%.
On the same count and under the same terms, for `CSCC[C@H](NC(=O)c1ccc(COCc2ccc(-c3ccccc3F)o2)cc1-c1ccccc1C)C(=O)O` [Example 437, N-[4-(5-(2-fluorophenyl)furan-2-ylmethoxymethyl)-2-(2-methylphenyl)benzoyl]methionine lithium salt] the value was 89%; for `CSCC[C@H](NC(=O)c1ccc(COCc2ccc(-c3ccccc3C(F)(F)F)o2)cc1-c1ccccc1C)C(=O)O` [Example 438, N-[4-(5-(2-trifluoromethylphenyl)furan-2-ylmethoxymethyl)-2-(2-methylphenyl)benzoyl]methionine lithium salt], 90%.
The same measure, in the same setting: for `CSCC[C@H](NC(=O)c1ccc(COCc2ccc(-c3cccc([N+](=O)[O-])c3)o2)cc1-c1ccccc1C)C(=O)O` [Example 440, N-[4-(5-(3-nitrophenyl)furan-2-ylmethoxymethyl)-2-(2-methylphenyl)benzoyl]methionine lithium salt] the value was 92%; for `CSCC[C@H](NC(=O)c1ccc(COCc2ccc(-c3cccc(C(F)(F)F)c3)o2)cc1-c1ccccc1C)C(=O)O` [Example 441, N-[4-(5-(3-trifluoromethylphenyl)furan-2-ylmethoxymethyl)-2-(2-methylphenyl)benzoyl]methionine lithium salt], 91%.
In the case of `COc1cccc(-c2ccc(COCc3ccc(C(=O)N[C@@H](CCSC)C(=O)O)c(-c4ccccc4C)c3)o2)c1` [Example 442, N-[4-(5-(3-methoxyphenyl)furan-2-ylmethoxymethyl)-2-(2-methylphenyl)benzoyl]methionine lithium salt], the inhibition at 0.1 µM came to 88%.
For the molecule `CSCC[C@H](NC(=O)c1ccc(COCc2ccc(-c3ccc(C(F)(F)F)cc3)o2)cc1-c1ccccc1C)C(=O)O` [Example 445, N-[4-(5-(4-trifluoromethylphenyl)furan-2-ylmethoxymethyl)-2-(2-methylphenyl)benzoyl]methionine lithium salt], the inhibition at 0.1 µM worked out at 94%.
Same read-out and setting: as for `COc1ccc(-c2ccc(COCc3ccc(C(=O)N[C@@H](CCSC)C(=O)O)c(-c4ccccc4C)c3)o2)cc1` [Example 446, N-[4-(5-(4-methoxyphenyl)furan-2-ylmethoxymethyl)-2-(2-methylphenyl)benzoyl]methionine lithium salt], the figure is 91%.
For the molecule `CSCC[C@H](NC(=O)c1ccc(COCc2ccc(-c3ccc(SC)cc3)o2)cc1-c1ccccc1C)C(=O)O` [Example 447, N-[4-(5-(4-methylthiophenyl)furan-2-ylmethoxymethyl)-2-(2-methylphenyl)benzoyl]methionine lithium salt], the inhibition at 0.1 µM stood at 91%.
Same read-out and setting: for `CSCC[C@H](NC(=O)c1ccc(COCc2ccc(-c3ccc(C=O)cc3)o2)cc1-c1ccccc1C)C(=O)O` [Example 448, N-[4-(5-(4-formylphenyl)furan-2-ylmethoxymethyl)-2-(2-methylphenyl)benzoyl]methionine lithium salt] the value was 92%; for `CSCC[C@H](NC(=O)c1ccc(COCc2ccc(-c3ccc(C(C)=O)cc3)o2)cc1-c1ccccc1C)C(=O)O` [Example 449, N-[4-(5-(4-acetylphenyl)furan-2-ylmethoxymethyl)-2-(2-methylphenyl)benzoyl]methionine lithium salt], 91%.

The same assay, now with this note: read-out: % inhibition at 1 × 10^-7 M; Table 3; 1 × 10^-7 M.
In the case of `CSCC[C@H](NC(=O)c1ccc(COCc2ccc(-c3ccc(Cl)cc3)o2)cc1-c1ccccc1C)C(=O)O` [Example 443, N-[4-(5-(4-chlorophenyl)furan-2-ylmethoxmethyl)-2-(2-methylphenyl)benzoyl]methionine lithium salt], the inhibition at 0.1 µM is 97%.
The same measure, in the same setting: as for `CSCC[C@H](NC(=O)c1ccc(COCc2ccc(-c3ccc(F)c(Cl)c3)o2)cc1-c1ccccc1C)C(=O)O` [Example 450, N-[4-(5-(3-chloro-4-fluorophenyl)furan-2-ylmethoxymethyl)-2-(2-methylphenyl)benzoyl]methionine lithium salt], the figure is 96%.

These data come from US6204293A, “Inhibitors of protein isoprenyl transferases” (University of Pittsburgh, priority 1998, dated 2001).
